PubChem BioAssay (NCI)
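96-well plates; 48 h exposure; 5 concentrations. Endpoints by linear interpolation between flanking doses. Not reached: highest tested concentration assigned. TGI denotes the concentration required for complete inhibition of growth.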 Activity calls are given as the source filed them. Rule as the data show it: active = GI50 below about 0.43 µM; inactive = the rest.

How the values were obtained:
Assay in all cases: NCI anticancer screen, dose series, 48 h
DLD-1 colon = tested on: DLD-1 colon
RXF 393 renal = tested on: RXF 393 renal
UACC-62 melanoma = tested on: UACC-62 melanoma
COLO 205 colon = tested on: COLO 205 colon
NCI-H23 lung = tested on: NCI-H23 lung
KM20L2 colon = tested on: KM20L2 colon
SF-268 CNS = tested on: SF-268 CNS
CCRF-CEM leukemia = tested on: CCRF-CEM leukemia
LOX IMVI melanoma = tested on: LOX IMVI melanoma
OVCAR-4 ovarian = tested on: OVCAR-4 ovarian
SK-MEL-28 melanoma = tested on: SK-MEL-28 melanoma
SN12C renal = tested on: SN12C renal
NCI-H460 lung = tested on: NCI-H460 lung
OVCAR-3 ovarian = tested on: OVCAR-3 ovarian
KM12 colon = tested on: KM12 colon
TK-10 renal = tested on: TK-10 renal
SNB-19 CNS = tested on: SNB-19 CNS
SNB-78 CNS = tested on: SNB-78 CNS
DMS 273 small cell lung = tested on: DMS 273 small cell lung
SF-295 CNS = tested on: SF-295 CNS
RXF-631 renal = tested on: RXF-631 renal
OVCAR-8 ovarian = tested on: OVCAR-8 ovarian
SF-539 CNS = tested on: SF-539 CNS
K-562 leukemia = tested on: K-562 leukemia
MOLT-4 leukemia = tested on: MOLT-4 leukemia
A549 NSCLC = tested on: A549 NSCLC
HCT-116 colon = tested on: HCT-116 colon
NCI-H522 lung = tested on: NCI-H522 lung
LXFL 529 NSCLC = tested on: LXFL 529 NSCLC
HT29 colon = tested on: HT29 colon
SW-620 colon = tested on: SW-620 colon
HOP-62 NSCLC = tested on: HOP-62 NSCLC
U251 CNS = tested on: U251 CNS
HL-60(TB) leukemia = tested on: HL-60(TB) leukemia
M19-MEL melanoma = tested on: M19-MEL melanoma
SK-MEL-2 melanoma = tested on: SK-MEL-2 melanoma
786-0 renal = tested on: 786-0 renal
SK-MEL-5 melanoma = tested on: SK-MEL-5 melanoma
HCC-2998 colon = tested on: HCC-2998 colon
NCI-H226 lung = tested on: NCI-H226 lung
HCT-15 colon = tested on: HCT-15 colon
SR leukemia = tested on: SR leukemia
XF 498 CNS = tested on: XF 498 CNS
M14 melanoma = tested on: M14 melanoma
ACHN renal = tested on: ACHN renal
EKVX NSCLC = tested on: EKVX NSCLC
OVCAR-5 ovarian = tested on: OVCAR-5 ovarian
IGROV1 ovarian = tested on: IGROV1 ovarian
DMS 114 small cell lung = tested on: DMS 114 small cell lung
MALME-3M melanoma = tested on: MALME-3M melanoma
SK-OV-3 ovarian = tested on: SK-OV-3 ovarian
CAKI-1 renal = tested on: CAKI-1 renal
UACC-257 melanoma = tested on: UACC-257 melanoma
SNB-75 CNS = tested on: SNB-75 CNS
RPMI-8226 leukemia = tested on: RPMI-8226 leukemia
HOP-92 NSCLC = tested on: HOP-92 NSCLC
NCI/ADR-RES ovarian = tested on: NCI/ADR-RES ovarian
UO-31 renal = tested on: UO-31 renal

COc1ccc2cc1Oc1ccc(cc1)CC1c3cc4c(cc3CCN1C)Oc1c(OC)cc3c(c1O4)C(C2)N(C)CC3 (stereo unspecified)
TGI (DLD-1 colon): 9.62 µM | TGI (RXF 393 renal): 7.93 µM | TGI (UACC-62 melanoma): 10.5 µM | TGI (COLO 205 colon): 2.83 µM | TGI (NCI-H23 lung): 18.2 µM | TGI (KM20L2 colon): 9.25 µM | TGI (SF-268 CNS): 13.1 µM | TGI (CCRF-CEM leukemia): 6.69 µM | TGI (LOX IMVI melanoma): 2.81 µM | TGI (OVCAR-4 ovarian): 3.03 µM | TGI (SK-MEL-28 melanoma): 2.91 µM | TGI (SN12C renal): 3.62 µM | TGI (NCI-H460 lung): 3.6 µM | TGI (OVCAR-3 ovarian): 19.5 µM | TGI (KM12 colon): 4.57 µM | TGI (TK-10 renal): 31.3 µM | TGI (SNB-19 CNS): 13.5 µM | TGI (SNB-78 CNS): 48 µM | TGI (DMS 273 small cell lung): 3.02 µM | TGI (SF-295 CNS): 3.81 µM | TGI (RXF-631 renal): 31.1 µM | TGI (OVCAR-8 ovarian): 5.45 µM | TGI (SF-539 CNS): 3.9 µM | TGI (K-562 leukemia): 6.02 µM | TGI (MOLT-4 leukemia): 4.73 µM | TGI (A549 NSCLC): 21.4 µM | TGI (HCT-116 colon): 3.21 µM | TGI (NCI-H522 lung): 4.67 µM | TGI (LXFL 529 NSCLC): 11 µM | TGI (HT29 colon): 4.77 µM | TGI (SW-620 colon): 3.79 µM | TGI (HOP-62 NSCLC): 28 µM | TGI (U251 CNS): 4.47 µM | TGI (HL-60(TB) leukemia): 4.25 µM | TGI (M19-MEL melanoma): 14.3 µM | TGI (SK-MEL-2 melanoma): 6.53 µM | TGI (786-0 renal): 23 µM | TGI (SK-MEL-5 melanoma): 21.1 µM | TGI (HCC-2998 colon): 9.86 µM | TGI (NCI-H226 lung): 10.7 µM | TGI (HCT-15 colon): 5.82 µM | TGI (SR leukemia): 4.68 µM | TGI (XF 498 CNS): 3.41 µM | TGI (M14 melanoma): 3 µM | TGI (ACHN renal): 17.9 µM | TGI (EKVX NSCLC): 24.2 µM | TGI (OVCAR-5 ovarian): 26.5 µM

CC(C)=C1C(=O)C[C@@]2(C)C[C@H]3OC3(C)CC/C=C(/C)CCC12 (stereo partly specified)
outcome (DLD-1 colon): inactive | outcome (RXF 393 renal): inactive | outcome (IGROV1 ovarian): inactive | outcome (UACC-62 melanoma): inactive | outcome (COLO 205 colon): inactive | outcome (NCI-H23 lung): inactive | outcome (KM20L2 colon): inactive | outcome (SF-268 CNS): inactive | outcome (CCRF-CEM leukemia): inactive | outcome (LOX IMVI melanoma): inactive | outcome (OVCAR-4 ovarian): inactive | outcome (SN12C renal): inactive | outcome (DMS 114 small cell lung): inactive | outcome (NCI-H460 lung): inactive | outcome (OVCAR-3 ovarian): inactive | outcome (KM12 colon): inactive | outcome (MALME-3M melanoma): inactive | outcome (SNB-19 CNS): inactive | outcome (SNB-78 CNS): inactive | outcome (SK-OV-3 ovarian): inactive | outcome (CAKI-1 renal): inactive | outcome (DMS 273 small cell lung): inactive | outcome (SF-295 CNS): inactive | outcome (RXF-631 renal): inactive | outcome (OVCAR-8 ovarian): inactive | outcome (SF-539 CNS): inactive | outcome (K-562 leukemia): inactive | outcome (MOLT-4 leukemia): inactive | outcome (UACC-257 melanoma): inactive | outcome (A549 NSCLC): inactive | outcome (NCI-H522 lung): inactive | outcome (LXFL 529 NSCLC): inactive | outcome (SNB-75 CNS): inactive | outcome (RPMI-8226 leukemia): inactive | outcome (HT29 colon): inactive | outcome (SW-620 colon): inactive | outcome (HOP-62 NSCLC): inactive | outcome (U251 CNS): inactive | TGI (HL-60(TB) leukemia): 49.2 µM | outcome (HL-60(TB) leukemia): inactive | outcome (HOP-92 NSCLC): inactive | outcome (SK-MEL-2 melanoma): inactive | outcome (786-0 renal): inactive | outcome (HCC-2998 colon): inactive | outcome (NCI-H226 lung): inactive | outcome (HCT-15 colon): inactive | outcome (SR leukemia): inactive | outcome (XF 498 CNS): inactive | outcome (M14 melanoma): inactive | TGI (NCI/ADR-RES ovarian): 95 µM | outcome (UO-31 renal): inactive | outcome (ACHN renal): inactive | outcome (EKVX NSCLC): inactive | outcome (OVCAR-5 ovarian): inactive
